Measurements as given in patent US20120295920A1, “5-AMINO-4-HYDROXYPENTOYL AMIDES” (priority 2009, published 2012).
Like-named read-outs stand apart in the source and are kept apart here.

Assays:
[1] = test system: HIV-1 IIIB; test: 50% HS-Rezazurin: antiviral assay in the presence of 50% human serum, MT-4 cells, resazurin cell viability; type: cell-based
Method: For the Antiviral assay in the presence of 50% human serum MT-4 cells were infected with HIV-1 IIIB at a MOI of 0.001 to 0.01 CCID50/cell in RPMI1640 medium. Following 1 h of incubation, cells were washed and plated into a 96-well plate containing serial dilutions of compound in the presence of 10% fetal calf serum (FCS), or 50% human serum. After 4 days incubation, the EC50 in the presence of 50% human serum was determined by a cell viability assay using resazurin.
The last column lists the results for the wild-type strain IIB in the presence of 50% human serum MT-4 cells.

[2] = test system: HIV-1 Strain C (G048G/V, V082A); test: microbe, parasite or virus in culture; type: cell-based; conditions: clinical isolate Strain C; read-out: C EC50
Method: (§1) MT4-LTR-EGFP cells were obtained by transfecting MT4 cells with a selectable construct encompassing the sequences coding for the HIV long terminal repeat (LTR) as a promoter for the expression of enhanced green fluorescent protein (EGFP) and subsequent selection of permanently transfected cells.
(§2) The antiviral activity on different HIV-1 strains, was determined in a cell-based virus replication assay. Here MT4-LTR-EGFP cells (150,000 cells/ml) are infected (multiplicity of infection [MOI] of 0.0025) in the presence or absence of different inhibitor concentrations. Two methodologies for read-out were used, either quantification of GFP-fluoresence on day 3 post-infection, or quantification of cell-viability using rezazurin (as described by Fields, R. D., and M. V. Lancaster (1993) Am. Biotechnol. Lab. 11:48-50) on day 4 post infection.
(§3) In the following Table, Strains A, B, and C are clinical isolates that include the following protease inhibitor resistance mutations in the protease domain (background mutations are not mentioned).

[3] = test system: HIV-1 Strain B (M046I, I050V); test: microbe, parasite or virus in culture; type: cell-based; conditions: clinical isolate Strain B; read-out: B EC50
Method: as §1, §2, §3

[4] = test system: HIV-1 Strain A (M046I, I084V); test: microbe, parasite or virus in culture; type: cell-based; conditions: clinical isolate Strain A; read-out: A EC50
Method: as §1, §2, §3

[5] = test system: mock-infected MT4 cells; test: General toxicity assay on mock-infected MT4 cells with CMV-EGFP reporter (CC50); type: cell-based
[6] = test system: HIV-1 wild-type strain; test: General antiviral assay, cell-based virus replication in MT4-LTR-EGFP cells, wild-type strain
Method: as §1, §2

[7] = MT4LTR cells, read-out: TOX-MT4LTR (CC50)
[8] = mock-infected MT4 cells with CMV-EGFP reporter, read-out: TOX-MT4CMV (CC50)
[9] = wild-type strain IIIB, MT4-LTR-EGFP cells

| SMILES | EC50 [1] | EC50 [2] | EC50 [3] | EC50 [4] | CC50 [5, 7] | CC50 [5, 8] | EC50 [6, 9] | EC50 ([6]; read-out: HIV-IIIB EC50) |
| --- | --- | --- | --- | --- | --- | --- | --- | --- |
| COC(=O)N[C@H](C(=O)N[C@@H](Cc1ccccc1)[C@@H](O)CN(Cc1ccc(-c2ccccn2)cc1)NC(=O)[C@@H](NC(=O)OC)C(C)(C)C)C(C)(C)C [ATV] | 16 nM | 62 nM | 3.3 nM | 59 nM | > 32000 nM | 26000 nM | 7.6 nM | – |
| COC(=O)NC(C(=O)NC(Cc1ccc(-c2ccnc(C)c2)cc1)C(O)CC(Cc1cccc(Cl)c1)C(=O)NC1c2ccccc2OCC1O)C(C)(C)C (centres unmarked) [Compound 1] | 39.3 nM | 3.7 nM | 4.8 nM | 5.7 nM | – | > 32000 nM | – | 7.7 nM |
| COC(=O)NC(C(=O)NC(Cc1ccc(-c2ccc(N(C)C)nc2)cc1)C(O)CC(Cc1cccc(Cl)c1)C(=O)NC1c2ccccc2OCC1O)C(C)(C)C (centres unmarked) [Compound 2] | 19.7 nM | 1.1 nM | 2.2 nM | 3.3 nM | – | > 32000 nM | 3 nM | – |
| COC(=O)NC(C(=O)NC(Cc1ccc(-c2ccc(OC)nc2)cc1)C(O)CC(Cc1cccc(Cl)c1)C(=O)NC1c2ccccc2OCC1O)C(C)(C)C (centres unmarked) [Compound 3] | 13.6 nM | 2.4 nM | 3.5 nM | 2.3 nM | – | > 32000 nM | 2.6 nM | – |
| COC(=O)NC(C(=O)NC(Cc1ccc(-c2ccc(N(C)C)nc2)cc1)C(O)CC(Cc1cccc(Cl)c1)C(=O)NC1c2cc(Cl)ccc2OCC1O)C(C)(C)C (centres unmarked) [Compound 5] | 28.6 nM | 5.1 nM | 4.4 nM | 5.4 nM | – | > 32000 nM | 4.7 nM | – |
| COC(=O)NC(C(=O)NC(Cc1ccc(-c2cnc(C)s2)cc1)C(O)CC(Cc1cccc(Cl)c1)C(=O)NC1c2cc(Cl)ccc2OCC1O)C(C)(C)C (centres unmarked) [Compound 6] | 15.2 nM | 1.5 nM | 2.7 nM | 3.9 nM | – | > 32000 nM | 3.2 nM | – |
| COC(=O)NC(C(=O)NC(Cc1ccc(-c2ccc(N(C)C)nc2)cc1)C(O)CC(Cc1ccccc1F)C(=O)NC1c2ccccc2OCC1O)C(C)(C)C (centres unmarked) [Compound 7] | 10.4 nM | 0.8 nM | 0.9 nM | 1.5 nM | > 49000 nM | > 32000 nM | 1.6 nM | – |
| COC(=O)NC(C(=O)NC(Cc1ccc(-c2ccc(N(C)C)nc2)cc1)C(O)CC(Cc1ccccc1F)C(=O)NC1c2cc(Cl)ccc2OCC1O)C(C)(C)C (centres unmarked) [Compound 8] | 12.4 nM | 1 nM | 1.2 nM | 2 nM | > 49000 nM | > 32000 nM | 1.8 nM | – |
| CN(C)c1ccc(-c2ccc(CC(NC(=O)C(NC(=O)CN3CCCC3)C(C)(C)C)C(O)CC(Cc3cccc(Cl)c3)C(=O)NC3c4cc(F)ccc4OCC3O)cc2)cn1 (centres unmarked) [Compound 9] | 31.7 nM | 3.7 nM | 6.6 nM | – | – | > 27000 nM | 8.8 nM | – |
| COC(=O)NC(C(=O)NC(Cc1ccc(-c2ccc(N(C)C)nc2)cc1)C(O)CC(Cc1ccccc1F)C(=O)NC1c2cc(F)cc(F)c2OCC1O)C(C)(C)C (centres unmarked) [Compound 10] | 20.1 nM | 1.7 nM | 2.5 nM | 4 nM | – | > 32000 nM | 3.2 nM | – |
| COC(=O)NC(C(=O)NC(Cc1ccc(-c2cnc(C)s2)cc1)C(O)CC(Cc1ccccc1F)C(=O)NC1c2cc(Cl)ccc2OCC1O)C(C)(C)C (centres unmarked) [Compound 11] | 22.4 nM | 2.1 nM | 3.5 nM | 3.9 nM | – | > 32000 nM | 4.2 nM | – |
| COC(=O)NC(C(=O)NC(Cc1ccc(-c2cc(C)nc(C)c2)cc1)C(O)CC(Cc1ccccc1F)C(=O)NC1c2cc(Cl)ccc2OCC1O)C(C)(C)C (centres unmarked) [Compound 12] | 35.7 nM | 2.2 nM | 3 nM | 3.7 nM | – | > 32000 nM | 4 nM | – |
| COC(=O)NC(C(=O)NC(Cc1ccc(-c2ccc(N(C)C)nc2)cc1)C(O)CC(Cc1cccc(Cl)c1)C(=O)NC1c2cc(F)ccc2OCC1O)C(C)(C)C (centres unmarked) [Compound 13] | 22.6 nM | 2.4 nM | 3 nM | 4.6 nM | – | > 32000 nM | 4.7 nM | – |
| CCc1ncc(-c2ccc(CC(NC(=O)C(NC(=O)OC)C(C)(C)C)C(O)CC(Cc3ccccc3F)C(=O)NC3c4cc(Cl)ccc4OCC3O)cc2)s1 (centres unmarked) [Compound 14] | 24.6 nM | 1.3 nM | 2.1 nM | 3.5 nM | – | > 32000 nM | 3 nM | – |
| COC(=O)NC(C(=O)NC(Cc1ccc(-c2ccc(N(C)C)nc2)cc1)C(O)CC(Cc1cccc(OC)c1)C(=O)NC1c2ccccc2OCC1O)C(C)(C)C (centres unmarked) [Compound 15] | 8.7 nM | 1.3 nM | 1.2 nM | 2.1 nM | – | > 32000 nM | 2 nM | – |
| COC(=O)NC(C(=O)NC(Cc1ccc(-c2ccc(OC)nc2)cc1)C(O)CC(Cc1ccccc1F)C(=O)NC1c2ccccc2OCC1O)C(C)(C)C (centres unmarked) [Compound 16] | 6.6 nM | 1.1 nM | 1.3 nM | 2 nM | – | > 32000 nM | 2.5 nM | – |
| COC(=O)NC(C(=O)NC(Cc1ccc(-c2ccc(OC)nc2)cc1)C(O)CC(Cc1cccc(OC)c1)C(=O)NC1c2ccccc2OCC1O)C(C)(C)C (centres unmarked) [Compound 17] | 6.4 nM | 1.1 nM | 1.2 nM | 2 nM | – | > 32000 nM | 1.9 nM | – |
| COC(=O)NC(C(=O)NC(Cc1ccc(-c2ccc(OC)nc2)cc1)C(O)CC(Cc1ccccc1F)C(=O)NC1c2cc(Cl)ccc2OCC1O)C(C)(C)C (centres unmarked) [Compound 18] | 14 nM | 1.6 nM | 2 nM | 3 nM | > 32000 nM | > 32000 nM | 2.7 nM | – |
| CN(C)c1ccc(-c2ccc(CC(NC(=O)C(NC(=O)CN3CCCC3)C(C)(C)C)C(O)CC(Cc3ccccc3F)C(=O)NC3c4cc(Cl)ccc4OCC3O)cc2)cn1 (centres unmarked) [Compound 19] | 22.1 nM | 1.8 nM | 2.4 nM | 3.7 nM | – | > 27000 nM | 5.3 nM | – |
| COC(=O)NC(C(=O)NC(Cc1ccc(-c2csc(N(C)C)n2)cc1)C(O)CC(Cc1ccccc1F)C(=O)NC1c2cc(Cl)ccc2OCC1O)C(C)(C)C (centres unmarked) [Compound 20] | 11.2 nM | 2.7 nM | – | 7.4 nM | – | 6000 nM | 3.1 nM | – |
| COC(=O)N[C@H](C(=O)N[C@@H](Cc1ccc(-c2cncc(OC)n2)cc1)[C@@H](O)C[C@@H](Cc1ccccc1F)C(=O)N[C@H]1c2cc(Cl)ccc2OC[C@H]1O)C(C)(C)C [Compound 24] | 16.1 nM | 1.7 nM | 1.9 nM | – | – | > 32000 nM | 3.3 nM | – |
| CCOc1ccc(-c2ccc(C[C@H](NC(=O)[C@@H](NC(=O)OC)C(C)(C)C)[C@@H](O)C[C@@H](Cc3ccccc3F)C(=O)N[C@H]3c4cc(Cl)ccc4OC[C@H]3O)cc2)cn1 [Compound 44] | 13.7 nM | 2 nM | 2.2 nM | – | > 32000 nM | – | 3.2 nM | – |
| COCCOC(=O)N[C@H](C(=O)N[C@@H](Cc1ccc(-c2ccc(OC)nc2)cc1)[C@@H](O)C[C@@H](Cc1ccccc1Cl)C(=O)N[C@H]1c2cc(F)ccc2OC[C@H]1O)C(C)(C)C [Compound 57] | 8.7 nM | 0.8 nM | 0.9 nM | – | > 32000 nM | – | 1.9 nM | – |
| COC(=O)N[C@H](C(=O)N[C@@H](Cc1ccc(-c2ccc(OC)nc2)cc1)[C@@H](O)C[C@@H](Cc1ccccc1F)C(=O)N[C@H]1c2cc(F)ccc2OC[C@H]1O)C(C)(C)C [Compound 59] | 5.8 nM | – | 0.6 nM | 0.9 nM | > 32000 nM | – | 1.2 nM | – |
| CNC(=O)[C@@H](NC(=O)[C@H](Cc1ccccc1F)C[C@H](O)[C@H](Cc1ccc(-c2ccc(N(C)C)nc2)cc1)NC(=O)O[C@H]1CO[C@H]2OCC[C@H]21)C(C)(C)C [Compound 69] | 26.6 nM | 5.7 nM | 7 nM | – | – | > 32000 nM | – | 11.6 nM |
| COC(=O)N[C@H](C(=O)N[C@@H](Cc1ccc(-c2ccc(N(C)C)nc2)cc1)[C@@H](O)C[C@@H](Cc1ccccc1F)C(=O)N[C@H]1[C@H](C)CCC[C@H]1O)C(C)(C)C [Compound 89] | 4.9 nM | 0.8 nM | – | – | > 32000 nM | > 32000 nM | 1.1 nM | – |
